Earlier results, collected in US9057089B2, “Methods for natural product optimization” (The University of Wyoming, priority 2008, dated 2015).

Legend:
RpoB-V1275F mutant = settings: rpoB Val→Phe substitution (position 1275)
[1] = tested on: fungi, protozoa, or eukaryotic cells
[2] = in vivo
[3] = human clinical trials
peptidoglycan synthesis = settings: metabolic labeling
[4] = tested on: transpeptidases (penicillin binding proteins, PBPs)

For `C/C(=C\Cc1ccccc1)CCC(=O)C[C@H]1C[C@H](O)C/C(C)=C/C/C=C/C/C(CC(=O)O)=C\C(=O)O1` [Rip, ripostatin], the “increase of antibiotic MIC values relative to wild type cells” value (RpoB-V1275F mutant) is listed as over 16 fold.
For `CCCC1OC(=O)C(C)CC(C)CCCCC(=O)CCCC(CC)/C=C/C=C(\COC)CCC(O)C(O)CC(O)CNC1=O` (centres unmarked) [Antibiotic TA, myxovirescin], the “effect of sera on activity” value (growing E. coli cells; sera) is given as “not inhibited by sera”, the “growing E. coli cells killed” value (growing E. coli cells; within 30 minutes at 2 μg/ml) is given as 99% and the “activity on fungi, protozoa, or eukaryotic cells” value [1] is given as “not active”. For the same compound, the safety [2] was “safe”, the “therapeutic effect in periodontal diseases” value [3] was “effective therapeutic” and the “three indices (plaque, gingival, and bleeding)” value ([3]; only two treatments) was “significantly improved”. The peptidoglycan synthesis (peptidoglycan synthesis) was “blocks peptidoglycan synthesis” and the “inhibition of final cross-linking step catalyzed by transpeptidases” value [4] was “does not inhibit”.
In the case of `C/C=C/C/C=C(\C)C(O)CC/C(C)=C/C=C(\C)C(=O)c1c(O)cc([C@H](C)CC/C=C/NC(=O)OC)oc1=O` (some centres unmarked) [Cor, corallopyronin], the “increase of antibiotic MIC values relative to wild type cells” value (RpoB-V1275F mutant) is listed as over 8 fold.
For myxopyronin, the “increase of antibiotic MIC values relative to wild type cells” value (RpoB-V1275F mutant) is given as over 32 fold.
